The target of one assay is T1, α1a-AR (Homo sapiens, UniProt P35348).
T1 construct: expressed in transfected cells; host or cells: COS cells (pcDNA3 vector, DEAE-dextran transient transfection); membrane preparation
T1 sequence (P35348 1-466): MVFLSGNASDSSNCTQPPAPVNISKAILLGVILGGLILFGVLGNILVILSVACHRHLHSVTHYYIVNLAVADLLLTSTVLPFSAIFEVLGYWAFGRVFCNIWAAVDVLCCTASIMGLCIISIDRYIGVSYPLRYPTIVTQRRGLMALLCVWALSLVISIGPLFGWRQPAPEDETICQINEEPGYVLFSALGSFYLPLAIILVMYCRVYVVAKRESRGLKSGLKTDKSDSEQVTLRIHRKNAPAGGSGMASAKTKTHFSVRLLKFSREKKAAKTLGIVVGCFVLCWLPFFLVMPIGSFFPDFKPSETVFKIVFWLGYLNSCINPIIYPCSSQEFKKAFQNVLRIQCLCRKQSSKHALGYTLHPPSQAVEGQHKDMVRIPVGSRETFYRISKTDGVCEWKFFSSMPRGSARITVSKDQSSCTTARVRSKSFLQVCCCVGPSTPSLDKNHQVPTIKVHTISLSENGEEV
As to the kind of experiment: radioligand ([125I]-HEAT) receptor binding assay, COS cell membranes, α1a-AR. To be noted: Tables A-J; [125I]-HEAT 50 pM, COS membranes; read-out: α1a IC50. From the text: (§1) The first assay tested the ability of compounds of Formula I to bind to membrane bound receptors α1a-AR, α1b-AR and α1d-AR.
(§2) The DNA sequences of the three cloned human α1-AR subtypes have been published. […] We used published DNA sequence information to design-primers for use in RT-PCR amplification of each subtype to obtain cloned cDNAs. Human poly A+ RNA was obtained from commercially available sources and included hippocampus and prostate samples, sources which have been cited in the literature. For the primary screen a radio ligand binding assay was used which employed membrane preparations from cells expressing the individual cloned receptor cDNAs.
(§3) Each α1 receptor subtype was cloned from poly A+ RNA by the standard method of reverse transcription-polymerase chain reaction (RT-PCR). The following sources of polyA+ RNA were used for the cloning of the al receptor subtypes: α1a-AR, human hippocampus and prostate, α1b-AR, human hippocampus, α1d-AR, human hippocampus. The resulting cDNAs were cloned into the pcDNA3 mammalian expression vector (Invitrogen Corp., San Diego Calif.). Each DNA was sequenced for verification and to detect any possible mutations introduced during the amplification process. Any deviation in sequence from the published consensus for each receptor subtype was corrected by site-directed mutagenesis.
(§4) The three α1-AR subtypes (a, b, d) were transfected into COS cells using a standard DEAE-dextran procedure with a chloroquine shock. In this procedure, each tissue culture dish (100 mm) was inoculated with 3.5×10^6 cells and transfected with 10 μg of DNA. Approximately 72 hours post-transfection, the cells were harvested and COS membranes were prepared. Transfected COS cells from 25 plates (100 mm) were scraped and suspended in 15 mL of TE buffer (50 mM Tris-HCl, 5 mM EDTA, pH7.4). The suspension was disrupted with a homogenizer. It was then centrifuged at 1000×g for 10 minutes at 4° C. The supernatant was centrifuged at 34,500×g for 20 minutes at 4° C. The pellet was resuspended in 5 mL TNE buffer (50 mM Tris-HCl, 5 mM EDTA, 150 mM NaCl, pH7.4). The resulting membrane preparation was aliquoted and stored at −70° C. The protein concentration was determined following membrane solubilization with TritonX-100.
The ability of each compound to bind to each of the α1-AR subtypes was assessed in a receptor binding assay. […] The plate was incubated for 1 hour at room temperature and the reaction mixtures were filtered through a Packard GF/C Unifilter filter plate. The filter plate was dried for 1 hour in a vacuum oven. Scintillation fluid ([…]) was added to each well, and the filter plate was counted in a Packard Topcount scintillation counter. Data was analyzed using GraphPad Prism software.

The target of a further assay is T2, α1b-AR (Homo sapiens, UniProt P35368).
T2 construct: expressed in transfected cells; host or cells: COS cells (pcDNA3 vector, DEAE-dextran transient transfection); membrane preparation
T2 sequence (P35368 1-520): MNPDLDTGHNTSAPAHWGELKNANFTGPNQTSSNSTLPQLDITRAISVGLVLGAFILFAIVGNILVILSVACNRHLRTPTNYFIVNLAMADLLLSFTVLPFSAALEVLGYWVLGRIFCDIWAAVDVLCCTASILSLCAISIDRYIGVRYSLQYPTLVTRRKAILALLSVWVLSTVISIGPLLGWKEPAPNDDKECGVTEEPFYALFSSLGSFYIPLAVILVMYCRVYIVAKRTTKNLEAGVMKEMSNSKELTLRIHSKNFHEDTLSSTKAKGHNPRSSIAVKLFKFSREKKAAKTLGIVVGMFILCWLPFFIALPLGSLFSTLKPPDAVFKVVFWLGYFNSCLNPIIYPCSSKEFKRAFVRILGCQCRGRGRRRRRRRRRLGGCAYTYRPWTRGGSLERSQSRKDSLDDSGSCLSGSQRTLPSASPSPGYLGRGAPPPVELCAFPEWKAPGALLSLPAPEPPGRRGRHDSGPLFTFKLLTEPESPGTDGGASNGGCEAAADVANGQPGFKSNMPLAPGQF
The experiment in a line: radioligand ([125I]-HEAT) receptor binding assay, COS cell membranes, α1b-AR. To be noted: Tables A-J; [125I]-HEAT 50 pM, COS membranes; read-out: α1b IC50.
Description: as §1
as §2, with “receptor cDNAs. Radiolabeled ligands with binding activity on all three subtypes (non-selective) are commercially available ([125I]-HEAT, [3H]-prazosin).” for “receptor cDNAs.”
as §3, §4
(§5) The ability of each compound to bind to each of the α1-AR subtypes was assessed in a receptor binding assay. [125I]-HEAT, a non-selective α1-AR ligand, was used as the radiolabeled ligand. Each well of a 96-well plate received: 140 μL TNE, 25 μL [125I]-HEAT diluted in TNE (50,000 cpm; final concentration 50 pM), 10 μL test compound diluted in DMSO (final concentration 1 pM-10 μM), […] COS cell membrane preparation expressing one of the three α1-AR subtypes (0.05-0.2 mg membrane protein). The plate was incubated for 1 hour at room temperature and the reaction mixtures were filtered through a Packard GF/C Unifilter filter plate. The filter plate was dried for 1 hour in a vacuum oven. Scintillation fluid ([…]) was added to each well, and the filter plate was counted in a Packard Topcount scintillation counter. Data was analyzed using GraphPad Prism software.
(§6) Tables A-J list the IC50 values expressed in nanomolar concentration for select compounds of the invention in all receptor subtypes.

A further assay has as its target T3, α1d-AR (Homo sapiens, UniProt P25100).
T3 construct: expressed in transfected cells; host or cells: COS cells (pcDNA3 vector, DEAE-dextran transient transfection); membrane preparation
T3 sequence (P25100 1-572): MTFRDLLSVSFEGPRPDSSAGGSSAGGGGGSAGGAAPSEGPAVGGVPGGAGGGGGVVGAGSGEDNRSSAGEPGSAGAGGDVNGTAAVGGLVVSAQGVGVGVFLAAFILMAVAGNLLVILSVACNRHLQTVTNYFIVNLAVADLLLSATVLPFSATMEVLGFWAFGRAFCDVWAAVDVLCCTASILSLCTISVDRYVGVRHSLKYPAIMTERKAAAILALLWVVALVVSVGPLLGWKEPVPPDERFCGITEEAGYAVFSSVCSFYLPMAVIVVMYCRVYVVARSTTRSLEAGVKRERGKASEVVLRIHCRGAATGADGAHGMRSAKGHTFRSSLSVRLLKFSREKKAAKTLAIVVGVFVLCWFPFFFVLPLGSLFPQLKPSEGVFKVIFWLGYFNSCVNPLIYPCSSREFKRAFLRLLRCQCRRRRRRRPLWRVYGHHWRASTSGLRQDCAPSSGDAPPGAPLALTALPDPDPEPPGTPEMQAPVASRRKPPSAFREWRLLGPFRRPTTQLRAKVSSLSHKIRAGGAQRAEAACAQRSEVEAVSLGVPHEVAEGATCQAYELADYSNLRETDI
The experiment in a line: radioligand ([125I]-HEAT) receptor binding assay, COS cell membranes, α1d-AR. To be noted: Tables A-J, [125I]-HEAT 50 pM.
Description: as §1
as §2, with “receptor cDNAs. Radiolabeled ligands with binding activity on all three subtypes (non-selective) are commercially available ([125I]-HEAT, [3H]-prazosin).” for “receptor cDNAs.”
as §3, §4, §5, §6

For orientation: IC50 means the midpoint of a concentration-inhibition curve. With `CC(C)Oc1ccccc1N1CCN(Cc2cc(CN3CCCCC3=O)cs2)CC1` [compound 55], the values for the half-maximal inhibitory concentration (IC50) at α1a-AR, on α1b-AR and on α1d-AR were 1 nM, 768 nM and 185 nM, respectively.
On to `COc1ccccc1N1CCN(Cc2cccc(CN3CCC3=O)n2)CC1` [compound 41], for which the IC50 on α1a-AR was 7630 nM; at α1b-AR, 3170 nM; on α1d-AR, 1680 nM.
The like results for `CC(C)Oc1ccccc1N1CCN(Cc2cc(CN3CCCC3=O)cs2)CC1` [Compound 32] were, in that order, 0.83 nM, 620 nM and 24 nM.
In the same order, the values of `CC(C)Oc1ccccc1N1CCN(Cc2cc(CN3CCCC3=O)no2)CC1` [Compound 28] are 2.2 nM, more than 5980 nM and 131 nM.
The like results for `CC(C)Oc1ccccc1N1CCN(Cc2ncc(CN3CCCC3=O)s2)CC1` [Compound 17] were, in that order, 2.5 nM, 3470 nM and 79 nM.
As to `O=C1CCCCCN1Cc1cc(CN2CCN(c3ccccc3Oc3ccccc3)CC2)on1` [compound 39], the results for the IC50 at α1a-AR, on α1b-AR and at α1d-AR were 172 nM, more than 10000 nM and 570 nM, respectively.
With `CC(C)Oc1ccccc1N1CCN(Cc2cc(CN3CCCCC3=O)on2)CC1` [Compound 8], the half-inhibitory concentration (IC50) on α1a-AR was 3.8 nM; on α1d-AR it was 272 nM.
As to `COc1ccccc1N1CCN(Cc2ccc(CN3CCCCCC3=O)s2)CC1` [compound 49], the IC50 on α1a-AR was 37 nM; at α1b-AR, more than 10000 nM; on α1d-AR, 24 nM.
For the compound `CC(C)Oc1ccccc1N1CCN(Cc2cccc(CN3C(=O)CCCC3=O)n2)CC1` [compound 45], the values for the IC50 at α1a-AR, at α1b-AR and at α1d-AR were 98 nM, 96 nM and 197 nM, respectively.
Take `COc1ccccc1N1CCN(Cc2cccc(CN3CCCCC3=O)n2)CC1` [compound 54]: the values for the half-inhibitory concentration (IC50) at α1a-AR, on α1b-AR and on α1d-AR were 1730 nM, 3020 nM and 500 nM, respectively.
In the same order, the values of `COc1ccccc1N1CCN(Cc2cccc(CN3CCCCCCC3=O)n2)CC1` [compound 44] are 2030 nM, 3940 nM and 577 nM.
In the case of `CC(C)Oc1ccccc1N1CCN(Cc2nc(CN3CCCCC3=O)co2)CC1` [Compound 12], the IC50 on α1a-AR is 4640 nM; at α1b-AR it was more than 10000 nM; at α1d-AR, more than 10000 nM.
Turning to `CC(C)Oc1ccccc1N1CCN(Cc2cc(CN3CCCCCC3=O)cs2)CC1` [compound 56], the IC50 on α1a-AR was 3.7 nM; on α1b-AR, 1230 nM; on α1d-AR it was 95 nM.
On to `COc1ccccc1N1CCN(Cc2ccc(CN3CCCC3=O)s2)CC1` [Compound 23], for which the IC50 at α1a-AR is 80 nM; at α1b-AR, more than 10000 nM; on α1d-AR, 46 nM.
In the case of `COc1ccccc1N1CCN(Cc2cccc(CN3CCCC3=O)n2)CC1` [compound 43], the half-maximal inhibitory concentration (IC50) on α1a-AR came to 7720 nM; at α1b-AR, 2640 nM; at α1d-AR, 1560 nM.
In the same order, the values of `CC(C)Oc1ccccc1N1CCN(Cc2cccc(CN3C(=O)CCCC3c3ccccc3)n2)CC1` (centres unmarked) [compound 47] are 147 nM, 3320 nM and 291 nM.
In the same order, the values of `COc1ccccc1N1CCN(Cc2ccc(CN3CCCCC3=O)s2)CC1` [compound 48] are 29 nM, more than 10000 nM and 26 nM.
With `CC(C)Oc1ccccc1N1CCN(Cc2cccc(CN3C(=O)CCC3=O)n2)CC1` [compound 46], the IC50 came out at 69 nM at α1a-AR, 1750 nM at α1b-AR and 174 nM on α1d-AR.
In the same order, the values of `COc1ccccc1N1CCN(Cc2ccc(CN3CCCCC3CO)s2)CC1` (centres unmarked) [compound 50] are 838 nM, more than 5140 nM and 261 nM.
In the same order, the values of `COc1ccccc1N1CCN(Cc2cccc(CN3CCCCCC3=O)n2)CC1` [compound 42] are 8590 nM, 1420 nM and 526 nM.
Take `O=C1CCCN1Cc1cc(CN2CCN(c3ccccc3Oc3ccccc3)CC2)on1` [compound 38]: the IC50 at α1a-AR was determined as 30 nM; at α1b-AR, 4410 nM; at α1d-AR it was 341 nM.
`CC(C)Oc1ccccc1N1CCN(Cc2cc(CN3CCCCC3=O)nc(N)n2)CC1` [Compound 4]: the figures for the half-maximal inhibitory concentration (IC50) at α1a-AR, on α1b-AR and on α1d-AR were 79 nM, more than 10000 nM and more than 10000 nM, respectively.
`CC(C)Oc1ccccc1N1CCN(CC2=NOC(CN3CCCCC3=O)C2)CC1` (centres unmarked) [Compound 9]: the IC50 on α1a-AR is 89 nM; at α1b-AR it was more than 10000 nM; on α1d-AR, 1520 nM.

The values above are taken from patent US6841682B2, “Heterocycles useful in the treatment of benign prostatic hyperplasia” (Janseen Pharmaceutica N.V., priority 1997, dated 2005).
